Experimental data taken from patent US20070048370A1, “Pharmaceutical formulation for salts of monobasic acids with clopidogrel” (priority 2005, published 2007).
Read-outs that look alike come from different tables or passages of the source.

Experimental: The stability of clopidogrel besylate in the presence of various tabletting excipients was investigated. For this purpose, clopidogrel besylate was thoroughly triturated with the excipient in the ratio 1:1 and stored for two weeks at 40° C. and 75% relative humidity. The content of clopidogrel besylate in the sample was then determined.

Substance: 5-methyl-a-(4,5,6,7-tetrahydro[2,3-c]thienopyridyl)(2-chlorophenyl)acetate [Clopidogrel besylate]
- Clopidogrel besylate Residual content (%) (1:1 with AcDiSol, two weeks at 40° C. and 75% relative humidity): 94.00%
- Clopidogrel besylate Residual content (%) (1:1 with Lactose, two weeks at 40° C. and 75% relative humidity): 99.86%
- Clopidogrel besylate Residual content (%) (1:1 with Macrogol 6000, two weeks at 40° C. and 75% relative humidity): 90.07%
- Clopidogrel besylate Residual content (%) (1:1 with Mannitol, two weeks at 40° C. and 75% relative humidity): 99.85%
- Clopidogrel besylate Residual content (%) (1:1 with Mg-stearate, two weeks at 40° C. and 75% relative humidity): 51.99%
- Clopidogrel besylate Residual content (%) (1:1 with Microcrystalline cellulose, two weeks at 40° C. and 75% relative humidity): 99.24%
- Clopidogrel besylate Residual content (%) (1:1 with Silica, two weeks at 40° C. and 75% relative humidity): 99.44%
- Clopidogrel besylate Residual content (%) (1:1 with Stearic acid, two weeks at 40° C. and 75% relative humidity): 99.50%
- Clopidogrel besylate Residual content (%) (no excipient, stored two weeks at 40° C. and 75% relative humidity, content vs beginning of storage): 99.76%
- Compatibility with excipient (decomposition of the active substance) (with Macrogol 6000): incompatible
- Compatibility with excipient (decomposition of the active substance) (with Magnesium stearate): incompatible
- Compatibility with excipient (decomposition of the active substance) (with croscarmellose sodium (AcDiSol)): incompatible
- Compatibility with excipient (decomposition of the active substance) (with sodium lauryl sulfate): incompatible
